Reference: patent US4210639A, “5'-Deoxy-5'-(isobutylthio)-3-deazaadenosine, method of making same and its antiviral effect on Rous sarcoma virus and Gross murine leukemia virus” (The United States of America as represented by the …, priority 1978, dated 1980)
Entries after “also recorded” stand apart in the source; their conditions may differ. Read-outs that look alike come from different tables or passages of the source.

How the values were obtained:
AdoHcy hydrolase [1] = molecular target: T1, AdoHcy hydrolase (Bos taurus, UniProt Q3MHL4); assay: Inhibition of AdoHcy hydrolase from cow liver; format: biochemical; details: for IC50: read-out: I50
T1 construct: AdoHcy hydrolase from cow liver; from tissue; host or cells: cow liver
T1 sequence (Q3MHL4 2-432 limits assumed): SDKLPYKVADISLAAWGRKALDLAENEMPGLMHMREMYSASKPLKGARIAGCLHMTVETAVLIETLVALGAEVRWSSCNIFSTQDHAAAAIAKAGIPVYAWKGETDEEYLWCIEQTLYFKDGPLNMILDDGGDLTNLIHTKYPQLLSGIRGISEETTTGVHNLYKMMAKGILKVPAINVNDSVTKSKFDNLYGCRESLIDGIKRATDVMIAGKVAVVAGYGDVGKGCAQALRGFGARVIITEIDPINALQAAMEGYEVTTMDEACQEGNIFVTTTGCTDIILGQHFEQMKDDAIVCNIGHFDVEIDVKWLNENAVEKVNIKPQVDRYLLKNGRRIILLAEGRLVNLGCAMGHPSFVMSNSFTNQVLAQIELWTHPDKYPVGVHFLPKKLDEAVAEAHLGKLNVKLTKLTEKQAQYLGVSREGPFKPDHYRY

AdoHcy hydrolase [2] = assay: Hydrolysis of the compound by AdoHcy hydrolase; format: biochemical
RSV-BH = assay: Focus formation (oncogenic transformation) by RSV-BH in chick embryo cells; format: cell-based; details: for inhibition at 100 µM / inhibition at 30 µM: Gallus gallus
Procedure: Additionally, the ability of these compounds to inhibit the oncogenic transformation of chick embryo cells induced by RSV-BH was examined.
*Compounds were added 18 h after infection and foci were counted 7 days

chick embryo cells = assay: Effects on host chick embryo cells; format: cell-based; details: 0.1 mM
Gross MLV = assay: Replication of Gross MLV in mouse embryo cells (UV-XC plaque assay); format: cell-based, Swiss mouse
Procedure: (§1) Each point represents the mean number of UV-XC plaques per culture (triplicate assays)± the standarad deviation. The drug was dissolved in DMSO at the time of virus inoculation and was present throughout the incubation period. (B) Effect of treatment on the multiplication of host cells after 4 days exposure to drug. Each point represents the mean number of viable mouse embryo cells per culture ± the standard deviation. The initial number of cells plated was 3.5×10^5 cells.
(§2) The ability of 5'-deoxy-5'-(isobutylthio)-3-deazaadenosine to inhibit replication of Gross MLV in mouse embryo cells was tested. […] The selectivity ratio (i.e., the highest noncytotoxic concentration of drug over the lowest effective concentration of drug) was about 10.

mouse embryo cells = assay: Multiplication/cytotoxicity of mouse embryo host cells after 4 days exposure; format: cell-based, Swiss mouse; details: 30 to 100 μM
Procedure: as §1, §2

oncogenic virus = assay: Oncogenic virus-induced malignant transformation / viral replication, general statements; format: cell-based
cells = assay: Tolerance by cells; format: cell-based
methyltransferases = details: AdoMet-utilizing methyltransferases; cited from earlier work
[3] = AdoHcy hydrolase from cow liver
[4] = 0.03 mM, added 18 h after infection, counted 7 days later
[5] = 0.1 mM, added 18 h after infection, counted 7 days later
[6] = 168 h, read-out: Reduction of focus formation in RSV-BH infected cells
[7] = 0.1 mM, added 18 h after infection, counted 7 days later, read-out: % Inhibition of focus formation
[8] = non-competitive inhibition of AdoHcy hydrolase

Row | SMILES | Inhibition of AdoHcy hydrolase (in words) (AdoHcy hydrolase [1]) | Type of inhibition of AdoHcy hydrolase (AdoHcy hydrolase [1]) | IC50 (AdoHcy hydrolase [1]; [3]) [µM] | Effect on focus formation / RSV activity (in words) (RSV-BH) | No. of Foci (RSV-BH; [4]) | No. of Foci (RSV-BH; [5]) | inhibition at 30 µM (RSV-BH; [4]) [%] | inhibition at 100 µM (RSV-BH; [7]) [%] | also measured
1 | CC(C)CSC[C@H]1O[C@@H](n2cnc3c(N)nccc32)[C@H](O)[C@@H]1O [5'-Deoxy-5'-(isobutylthio)-3-deazaadenosine] | potent inhibitors of AdoHcy hydrolase; also recorded: good activity | non-competitive inhibitor | 280 | good antiviral; also recorded: just as effective as 3-deazaadenosine itself; also recorded: has shown activity | 93 | 3 | 72 | 99 | Type of inhibition of AdoHcy hydrolase (AdoHcy hydrolase [1]; listed as 5'-deoxy-(isobutylthio)-3-deazaadenosine): non-competitive; Ki relative to the Ki of 3-deazaadenosine (AdoHcy hydrolase [1]; times higher than Ki of 3-deazaadenosine): about 100 times; Hydrolysis by AdoHcy hydrolase (AdoHcy hydrolase [2]): not to be hydrolyzed; inhibition at 100 µM (RSV-BH; [6]): 95%; Effects on the host cells (chick embryo cells): without noticeable effects on the host cells; inhibition at 3 µM (Gross MLV; 3 μM, Gross MLV in mouse embryo cells, read-out: Inhibition of plaque formation in the indicator XC cells): 85%; Inhibition of virus replication (in words) (Gross MLV; 30 to 100 μM, Gross MLV in mouse embryo cells): Complete inhibition; Selectivity ratio (highest noncytotoxic concentration over lowest effective concentration) (Gross MLV; Gross MLV in mouse embryo cells): about 10; Antiviral activity against Gross murine leukemia virus (in words) (Gross MLV; mouse embryo cells): good antiviral; also recorded: has shown activity; Cytotoxicity (mouse embryo cells): cytotoxicity was observed; Ability to inhibit viral replication, compared between the two compounds (oncogenic virus): almost equal; Reversal of malignant transformation induced by oncogenic virus (oncogenic virus): will reverse the malignant transformation; Tolerance by cells (cells): well tolerated by cells
2 | Nc1ncnc2c1ncn2[C@@H]1O[C@H](CSCC[C@H](N)C(=O)O)[C@@H](O)[C@H]1O [Adenosylhomocysteine, S-adenosyl-L-homocysteine] |  |  |  |  |  |  |  |  | Inhibition of methyltransferases (methyltransferases): inhibit competitively most of the methyltransferases; also recorded: competitive inhibitor
3 | Nc1nccc2c1ncn2[C@@H]1O[C@H](CO)[C@@H](O)[C@H]1O [3-Deazaadenosine, 4-amino-1-β-D-ribofuranosyl [4,5-c]pyridine] | most potent inhibitor of AdoHcy hydrolase | competitive inhibitor |  |  | 106 | 17 | 68 | 95 | IC50 (AdoHcy hydrolase [1]; AdoHcy hydrolase): 8 µM; Ki (AdoHcy hydrolase [1]; competitive inhibition of AdoHcy hydrolase): 3 µM; Potency relative to 5'-deoxy-5'-S-isobutyl-adenosine as inhibitor of AdoHcy hydrolase (AdoHcy hydrolase [1]; nearly 100-fold more potent than 5'-deoxy-5'-S-isobutyl-adenosine): ~100 fold; Effect on oncogenic transformation induced by Rous sarcoma virus and on its infectivity (RSV-BH): powerful, although reversible, effect; Sensitivity to drug by phase of virus replication (RSV-BH): maximal during the phase of virus replication which required the synthesis of viral mRNA and protein; inhibition at 100 µM (RSV-BH; [6]): 95%; Effects on the host cells (chick embryo cells): without noticeable effects on the host cells; Ability to inhibit viral replication, compared between the two compounds (oncogenic virus): almost equal
4 | Nc1nccc2c1ncn2[C@@H]1O[C@H](CSCC[C@H](N)C(=O)O)[C@@H](O)[C@H]1O [3-Deazaadenosylhomocysteine] |  |  |  | Neither 3-deaza-AdoHcy nor 9-[5'-deoxy-5'-(methylthio)- β-D-arabinofuranosyl]adenine had any significant effect on focus formation | 330 | 276 | 0 | 16 | 
5 | CC(C)CSC[C@H]1O[C@@H](n2cnc3c(N)ncnc32)[C@H](O)[C@@H]1O [5'-deoxy-5'-S-isobutyladenosine] | potent inhibitors of AdoHcy hydrolase |  | > 1000 |  |  |  |  |  | Tolerance by cells (cells): well tolerated by cells
6 | CSC[C@H]1O[C@@H](n2cnc3c(N)ncnc32)[C@@H](O)[C@@H]1O [9-[5'-deoxy-5'-(methylthio)-β-D-arabinofuranosyl]-adenine] |  | non-competitive | 430 | Neither 3-deaza-AdoHcy nor 9-[5'-deoxy-5'-(methylthio)- β-D-arabinofuranosyl]adenine had any significant effect on focus formation | 274 | 298 | 17 | 9 | Ki (AdoHcy hydrolase [1]; [8]): 500 µM
7 | Nc1ncnc2c1ncn2[C@@H]1O[C@H](CNCCC(N)C(=O)O)[C@@H](O)[C@H]1O (stereo partly drawn) [Nγ-adenosyl-α,γ-diamino-butyric acid] |  | non-competitive | 140 |  |  |  |  |  | Ki (AdoHcy hydrolase [1]; [8]): 300 µM
